Patent publication US5654436A, “2-substituted benzimidazole derivatives” (American Home Products Corporation, priority 1995, dated 1997)
Where two headings read alike, the source gives them in different places.

System: Porcine Smooth Muscle Cell
Test: Inhibition of smooth muscle cell proliferation (3H-thymidine, serum or PDGF stimulated)
Type: cell-based
Conditions: Sus scrofa, porcine aortic smooth muscle cells, 24-36 hours; for inhibition at 10 µM: read-out: Porcine Smooth Muscle Cell Antiproliferation % Inhibition at x Concentration, Serum
Procedure: The ability of the compounds of the present invention to inhibit smooth muscle cell proliferation was established using isolated porcine nortic smooth muscle cells in a modification of the procedure of Casteliot et al. J. Biol. Chem 257(19) 11256 (1982), as follows:
Fresh porcine aortas, scrupulously cleansed of fatty tissue, are rinsed in sterile phosphate-buffered saline with 2% antibiotic-antimycotic (100×) liquid ( 10,000 units of penicillin (base), 10,000 μg of streptomycin (base), and 25 μg of amphotericin B/mL utilizing penicillin G (sodium salt), streptomycin sulfate, and amphotericin B as Fungizone® in 0.85% saline, available from Gibco Laboratories, Grand Island Biological Co., Grand Island, N.Y.). The tissue is then digested in 10-15 mL of an enzyme solution containing collagerinse type I, 165 U/mL; elastase type III, 15 U/mL; BSA, 2 mg/mL; and soybean trypsin inhibitor, 0.375 mg/mL, followed by incubation at 37° C. under 5% CO2 atmosphere for 10 to 15 minutes. After this treatment, the outer surface adventitia is removed by peeling with a forceps. The aorta is then longitudinally cut and laid open and the endothelial layer is removed by scraping.
The medial layer of cells is rinsed in the enzyme solution, and placed in a new 100 mm dish with 10 mL of enzyme solution. The medial layer of cells is minced using a fine pair of scissors and digested for 2-3 hours at 37° C. in 30 mL of fresh enzyme solution. After digestion, the medial tissue is homogenized using a sterile Pasteur pipette with a fire polished tip or an Eppendorf pipetter with a 200-1000 gL sterile pipette tip. The suspension is then centrifuged for 10 minutes at 8000 rpm and the pellet is suspended in 4-6 mL of fresh enzyme solution and plated onto 4-6 100 mm flasks with vented caps. The cells are then allowed to grow to confluence and split using 0.25% trypsin. The cells are evaluated for purity and overall quality using antibody to SMC actin.
The cells are assayed in early passage (generally passage 3-7) at sub-confluent conditions. Cultures are grown in 16 mm (24 well) multi-well culture dishes in media 199 supplemented with 10% fetal bovine serum and 2% antibiotic/antimycotic. At subconfluence, the cells are placed in a defined serum free, lymphocyte medium (AIM-V; Gibeo) for 24-48 hours prior to initiating the experimental protocol.
The standard test procedure is initiated by addition of the test compound, ^3 H-thymidine and serum or a specific growth factor to the serum deprived synchronized cells. Growth factor and serum stimulations are optimized for each cell type. The test compounds are added to each well at 50 fold dilution (20 μL/well) and the plates are incubated for 24-36 hours at 37° C. in 5% CO2 atmosphere. Test compounds are dissolved in 50% ethanol and assayed at 1, 10, and 100 μM. As a control, RG 50872 (Bilder, G. A.; et al., Am. J. Cell Physiol., 1991; 260: C721) is routinely assayed under the conditions of each cell preparation at a concentration of 5 μM.
At the completion of the experiment, the plates are placed on ice, washed three times with ice cold PBS and incubated in ice cold 10% trichloroacetic acid (TCA) for 30 minutes to remove acid soluble proteins. Each solution is transferred to a scintillation vial containing 0.4N HCl (500 μL/vial to neutralize NaOH) and each well is rinsed two times with water (500 μL) for a total volume of 2 mL/vial.
Data is quantitated by subjecting the vials to a scintillation counter, in triplicate, for both control and experimental samples. Control (100%) data is obtained from maximally stimulated cells, as the result of growth factor or serum stimulation. Experimental data is obtained from cells maximally stimulated with growth factor or serum and treated with a test compound. (The platelet-derived growth factor used in the assay was human recombinant PDGF-AB purchased from Upstate Biotechnology Inc., Lake Placid, N.Y.). Data is expressed as a percent of control from which IC50 s are determined.

[1] = human recombinant PDGF-AB stimulated, read-out: Porcine Smooth Muscle Cell Antiproliferation IC50, PDGF

Row | Structure (SMILES) | IC50 [1] [nM] | inhibition at 10 µM (serum stimulated) [%] | IC50 (serum stimulated, read-out: Porcine Smooth Muscle Cell Antiproliferation IC50, Serum) [nM]
1 | Clc1ccc(Cn2c(-c3ccccn3)nc3ccccc32)cc1Cl [Example 1, 1-(3,4-Dichiorobenzyl)-2-pyridin-2-yl-1H-benzoimidazole] | 4400 | 39.8 | 
2 | COC(=O)c1ccc(Cn2c(-c3ccccn3)nc3ccccc32)cc1 [Example 2, 4-[2-(Pyridin-2-yl)-benzoimidazol-1-ylmethyl]-benzoic acid methyl ester] | 1100 | 38.4 | 
3 | COC(=O)c1ccc(Cn2c(C(F)(F)F)nc3cc(C)c(C)cc32)cc1 [Example 3, 4-(5,6-Dimethyl-2-trifluoromethyl-benzoimidazol-1-ylmethyl)-benzoic acid methyl ester] | 2470 | 41.3 | 
4 | CCCc1nc2cc([N+](=O)[O-])ccc2n1Cc1ccc(C(=O)OCC)cc1 [Example 4, 4-(5-Nitro-2-propyl-benzoimidazol-1-ylmethyl)-benzoic acid ethyl ester] | 760 |  | 660
